Here are results for 41 compounds from patent publication US9006139B2, “Active compound combinations” (Bayer Intellectual Property GmbH, priority 2009, dated 2015).

Common to all, as to assay type: in vivo
One assay has as its system Sphaerotheca fuliginea. Nature of the assay: Sphaerotheca test (cucumbers)/protective. The note with it: Table C; for pest or weed control at 5 ppm: 5 ppm a.i. Here is the method:
(§1) Solvent: 24.5 parts by weight of acetone
(§2) • 24.5 parts by weight of dimethylacetamide Emulsifier: 1 part by weight of alkylaryl polyglycol ether
To produce a suitable preparation of active compound, 1 part by weight of active compound is mixed with the stated amounts of solvent and emulsifier, and the concentrate is diluted with water to the desired concentration. To test for protect activity, young plants are sprayed with the preparation of active compound at the stated rate of application. After the spray coating has dried on, the plants are inoculated with an aqueous spore suspension of Sphaerotheca fuliginea. The plants are then placed in a greenhouse at approximately 23° C. and a relative atmospheric humidity of approximately 70%. The test is evaluated 7 days after the inoculation. 0% means an efficacy which corresponds to that of the control, while an efficacy of 100% means that no disease is observed.

The next assay relates to Botrytis cinerea. Nature of the assay: Botrytis test (beans)/protective. The note with it: Table F. As to the method: as §1, §2
To produce a suitable preparation of active compound, 1 part by weight of active compound is mixed with the stated amounts of solvent and emulsifier, and the concentrate is diluted with water to the desired concentration. To test for protective activity, young plants are sprayed with the preparation of active compound. After the spray coating has dried on, 2 small pieces of agar covered with growth of Botrytis cinerea are placed on each leaf. The inoculated plants are placed in a darkened chamber at 20° C. and a relative atmospheric humidity of 100%. 2 days after the inoculation, the size of the lesions on the leaves is evaluated. 0% means an efficacy which corresponds to that of the control, while an efficacy of 100% means that no disease is observed.

For another assay, the system named is Alternaria solani. The assay is described as follows: Alternaria test (tomatoes)/protective. The note with it: Table E. As to the method:
as §1, §2
To produce a suitable preparation of active compound, 1 part by weight of active compound is mixed with the stated amounts of solvent and emulsifier, and the concentrate is diluted with water to the desired concentration. To test for protective activity, young plants are sprayed with the preparation of active compound at the stated rate of application. After the spray coating has dried on, the plants are inoculated with an aqueous spore suspension of Alternaria solani. The plants are then placed in an incubation cabinet at approximately 20° C. and a relative atmospheric humidity of 100%. The test is evaluated 3 days after the inoculation. 0% means an efficacy which corresponds to that of the control while an efficacy of 100% means that no disease is observed.

The subject of a further assay is Phytophthora infestans. Nature of the assay: whole plant or invertebrate. The note with it: for Efficacy in % found: Table A.
The mark [1] stands for this setting: Botrytis cinerea, 48 h, test 1, 25 ppm a.i., read-out: Efficacy in % found.
[2] abbreviates: Podosphaera fuliginea, 168 h, test 4, read-out: Efficacy in % found.
Setting [3] is: Botrytis cinerea, 48 h, test 2, 50 ppm a.i., read-out: Efficacy in % found.

Read-outs that look alike come from different tables or passages of the source.

As to `Fc1ccc([C@]2(Cn3cncn3)O[C@H]2c2ccccc2Cl)cc1` (racemic) [(1.12), epoxiconazole], the pest or weed control at 0.5 ppm with Sphaerotheca fuliginea (Podosphaera fuliginea, 168 h, test 1, 0.5 ppm a.i., read-out: Efficacy in % found) was 30%. Further, in the assay on Botrytis cinerea (setting [1]), the pest or weed control at 25 ppm is 49%.

Regarding `CC(C)(C)C(O)C(Oc1ccc(-c2ccccc2)cc1)n1cncn1` (stereo not shown) [(1.3), bitertanol], the pest or weed control at 5 ppm in the assay with Sphaerotheca fuliginea (setting [2]) turned out to be 71%.

As to `CC(C1CC1)C(O)(Cn1cncn1)c1ccc(Cl)cc1` (stereo not shown) [(1.5), cyproconazole], the pest or weed control at 0.5 ppm in the assay with Alternaria solani (Alternaria solani, 72 h, test 2, 0.5 ppm a.i., read-out: Efficacy in % found) worked out at 0%.

In the case of `CC1COC(Cn2cncn2)(c2ccc(Oc3ccc(Cl)cc3)cc2Cl)O1` (stereo not shown) [(1.7), difenoconazole], in the assay with Sphaerotheca fuliginea (setting [2]), the pest or weed control at 5 ppm came out at 38%.

Consider `CCCN(CC)CC1COC2(CCC(C(C)(C)C)CC2)O1` (stereo not shown) [(1.46), spiroxamine], for which, in the assay on Sphaerotheca fuliginea (Podosphaera fuliginea, 168 h, test 3, 100 ppm a.i., read-out: Efficacy in % found), the pest or weed control at 100 ppm was 10%.

Take `CC(C)(C)C(=O)C(Oc1ccc(Cl)cc1)n1cncn1` (stereo not shown) [(1.50), triadimefon]: in the assay with Sphaerotheca fuliginea (setting [2]), the pest or weed control at 5 ppm was 19%.

On to `CO/C=C(/C(=O)OC)c1ccccc1Oc1cc(Oc2ccccc2C#N)ncn1` [(3.2), azoxystrobin], for which the “Efficacy in % found” value in the assay with Phytophthora infestans (test 1, 1 ppm a.i.) was found to be 23%; in the assay on Alternaria solani (test 1, 0.5 ppm a.i.) it was 40%; in the assay on Botrytis cinerea (test 1, 25 ppm a.i.) it was 0%.

Regarding `CSC1=N[C@@](C)(c2ccccc2)C(=O)N1Nc1ccccc1` [(3.7), fenamidone], the pest or weed control at 1 ppm with Phytophthora infestans (Phytophthora infestans, 72 h, read-out: Efficacy in % found, Table A, test 1, 1 ppm a.i.) came to 62%.

Turning to `CCCCNC(=O)n1c(NC(=O)OC)nc2ccccc21` [(4.1), benomyl], the pest or weed control at 2.5 ppm in the assay on Botrytis cinerea (Botrytis cinerea, 48 h, test 3, 2.5 ppm a.i., read-out: Efficacy in % found) came to 8%.

As for `CCOc1ccc(NC(=O)OC(C)C)cc1OCC` [(4.3), diethofencarb], the pest or weed control at 50 ppm with Botrytis cinerea (Botrytis cinerea, 48 h, test 3, 50 ppm a.i., read-out: Efficacy in % found) was determined as 29%.

In the case of `O=C(Nc1ccccc1)N(Cc1ccc(Cl)cc1)C1CCCC1` [(4.6), pencycuron], in the assay with Botrytis cinerea (setting [3]), the pest or weed control at 50 ppm was determined as 0%.

On to `COC(=O)NC(=S)Nc1ccccc1NC(=S)NC(=O)OC` [(4.8), thiophanate-methyl], for which, in the assay with Phytophthora infestans (Phytophthora infestans, 72 h, read-out: Efficacy in % found, Table A, test 6, 250 ppm a.i.), the pest or weed control at 250 ppm came out at 29%. In the assay with Botrytis cinerea (Botrytis cinerea, 48 h, test 3, 12.5 ppm a.i., read-out: Efficacy in % found), the pest or weed control at 12.5 ppm is 84%.

With `O=C1C2CC=CCC2C(=O)N1SC(Cl)(Cl)Cl` (stereo not shown) [(5.3), captan], the pest or weed control at 50 ppm in the assay with Phytophthora infestans (Phytophthora infestans, 72 h, read-out: Efficacy in % found, Table A, test 6, 50 ppm a.i.) worked out at 60%.

As for `N#Cc1c(Cl)c(Cl)c(Cl)c(C#N)c1Cl` [(5.4), chlorothalonil], the pest or weed control at 2.5 ppm in the assay with Phytophthora infestans (Phytophthora infestans, 72 h, read-out: Efficacy in % found, Table A, test 5, 2.5 ppm a.i.) turned out to be 50%.

Take `N#Cc1sc2c(=O)c3ccccc3c(=O)c=2sc1C#N` [(5.6), dithianon]: the pest or weed control at 25 ppm in the assay on Phytophthora infestans (Phytophthora infestans, 72 h, read-out: Efficacy in % found, Table A, test 6, 25 ppm a.i.) stood at 54%.

For the compound `O=C1c2ccccc2C(=O)N1SC(Cl)(Cl)Cl` [(5.9), folpet], the pest or weed control at 50 ppm in the assay with Phytophthora infestans (Phytophthora infestans, 72 h, read-out: Efficacy in % found, Table A, test 3, 50 ppm a.i.) worked out at 32%.

Turning to `[Cu+2].[OH-].[OH-]` [(5.16), copper hydroxide], in the assay with Phytophthora infestans (test 6, 25 ppm a.i.), the “Efficacy in % found” value stood at 43%.

As to `Cc1cc(C)nc(Nc2ccccc2)n1` [(7.7), pyrimethanil], the pest or weed control at 50 ppm with Botrytis cinerea (setting [3]) came out at 0%.

Consider `CC(C)[C@H](NC(=O)O)C(=O)N[C@H](C)c1nc2ccc(F)cc2s1` [(9.1), benthiavalicarb], for which the “Efficacy in % found” value in the assay on Phytophthora infestans (test 1, 0.25 ppm a.i.) came out at 12%.

Regarding `COc1ccc(C(=CC(=O)N2CCOCC2)c2ccc(Cl)cc2)cc1OC` [(9.2), dimethomorph], in the assay with Phytophthora infestans (Phytophthora infestans, 72 h, read-out: Efficacy in % found, Table A, test 2, 0.5 ppm a.i.), the pest or weed control at 0.5 ppm amounted to 28%.

Turning to `Cc1ccc(C(C)NC(=O)[C@@H](NC(=O)OC(C)C)C(C)C)cc1` (stereo partly shown) [(9.4), iprovalicarb], the “Efficacy in % found” value with Phytophthora infestans (test 7, 1.25 ppm a.i.) was determined as 42%.

Turning to `COC(=O)CC(NC(=O)[C@@H](NC(=O)OC(C)C)C(C)C)c1ccc(Cl)cc1` (stereo partly shown) [(9.10), valifenalate], the “Efficacy in % found” value in the assay with Phytophthora infestans (test 2, 0.5 ppm a.i.) is 58%.

For the compound `CC(C)NC(=O)N1CC(=O)N(c2cc(Cl)cc(Cl)c2)C1=O` [(10.7), iprodione], in the assay with Alternaria solani (Alternaria solani, 72 h, test 1, 12.5 ppm a.i., read-out: Efficacy in % found), the pest or weed control at 12.5 ppm worked out at 35%. The pest or weed control at 25 ppm with Botrytis cinerea (setting [1]) is 0%.

For the compound `COC(=O)C(C)N(C(=O)Cc1ccccc1)c1c(C)cccc1C` (stereo not shown) [(12.1), benalaxyl], the pest or weed control at 1 ppm in the assay on Phytophthora infestans (Phytophthora infestans, 72 h, read-out: Efficacy in % found, Table A, test 4, 1 ppm a.i.) came out at 26%.

`COC(=O)[C@@H](C)N(C(=O)Cc1ccccc1)c1c(C)cccc1C` [(12.2), benalaxyl-M (kiralaxyl)]: the “Efficacy in % found” value in the assay on Phytophthora infestans (test 4, 1 ppm a.i.) turned out to be 19%.

Regarding `N#Cc1c[nH]cc1-c1cccc(Cl)c1Cl` [(13.1), fenpiclonil], the pest or weed control at 10 ppm in the assay with Botrytis cinerea (Botrytis cinerea, 48 h, test 2, 10 ppm a.i., read-out: Efficacy in % found) came to 0%.

Consider `N#Cc1c[nH]cc1-c1cccc2c1OC(F)(F)O2` [(13.2), fludioxonil], for which the pest or weed control at 5 ppm in the assay with Botrytis cinerea (Botrytis cinerea, 48 h, test 2, 5 ppm a.i., read-out: Efficacy in % found) stood at 84%.

Regarding `Fc1ccc(Oc2ccnc3cc(Cl)cc(Cl)c23)cc1` [(13.3), quinoxyfen], the pest or weed control at 5 ppm in the assay with Sphaerotheca fuliginea (Podosphaera fuliginea, 168 h, test 3, read-out: Efficacy in % found) came out at 37%.

Consider `CCCCCCCCc1c(CC)nc2ncnn2c1N` [(15.1), ametoctradin], for which the “Efficacy in % found” value in the assay with Phytophthora infestans (test 2, 2.5 ppm a.i.) is reported as 73%.

Turning to `O=C(NCc1ncc(C(F)(F)F)cc1Cl)c1c(Cl)cccc1Cl` [(15.17), fluopicolide], the “Efficacy in % found” value in the assay on Phytophthora infestans (test 1, 1 ppm a.i.) is 0%.

On to `CCO[PH](=O)O` [(15.20), fosetyl-Al], for which the “Efficacy in % found” value in the assay on Phytophthora infestans (test 7, 62.5 ppm a.i.) amounted to 53%.

As to `N#Cc1ccccc1NC(=O)c1snc(Cl)c1Cl` [(15.22), isotianil], the “Efficacy in % found” value in the assay on Botrytis cinerea (test 2, 50 ppm a.i.) is 0%.

Regarding `COc1cc(C)c(C(=O)c2c(OC)ccc(Br)c2C)c(OC)c1OC` [(15.25), metrafenone], the pest or weed control at 10 ppm in the assay with Sphaerotheca fuliginea (Podosphaera fuliginea, 168 h, test 2, 10 ppm a.i., read-out: Efficacy in % found) is 21%.

For `COc1ccccc1N1CCS/C1=C(/C#N)Sc1cc(C(F)(F)F)ccc1F` [(15.57), flutianil], the “Efficacy in % found” value in the assay with Sphaerotheca fuliginea (test 2, 0.5 ppm a.i.) is on record as 48%.

With `CCCCCOC(=O)Nc1cccc(CON=C(c2ccccc2)c2nnnn2C)n1` [(15.66), pentyl {6-[({[(1-methyl-1H-tetrazol-5-yl)(phenyl)methylidene]amino}oxy)-methyl]pyridin-2-yl}carbamate], the pest or weed control at 0.5 ppm with Phytophthora infestans (Phytophthora infestans, 72 h, read-out: Efficacy in % found, Table A, test 5, 0.5 ppm a.i.) is 30%.

With `Cc1cc(C(F)(F)F)nn1CC(=O)N1CCC(c2nc(C3=NO[C@@H](c4c(F)cccc4F)C3)cs2)CC1` [(15.88), 1-(4-{4-[(5R)-5-(2,6-difluorophenyl)-4,5-dihydro-1,2-oxazol-3-yl]-1,3-thiazol-2-yl}piperidin-1-yl)-2-[5-methyl-3-(trifluoromethyl)-1H-pyrazol-1-yl]ethanone], in the assay with Phytophthora infestans (Phytophthora infestans, 72 h, read-out: Efficacy in % found, Table A, test 5, 0.025 ppm a.i.), the pest or weed control at 0.025 ppm worked out at 50%.

With mancozeb [(5.19)], the “Efficacy in % found” value in the assay on Phytophthora infestans (test 3, 50 ppm a.i.) stood at 53%.

Consider metalaxyl-M (mefenoxam) [(12.10)], for which the “Efficacy in % found” value with Phytophthora infestans (test 7, 1.25 ppm a.i.) is 13%.

For metiram [(5.21)], the “Efficacy in % found” value in the assay on Phytophthora infestans (test 3, 50 ppm a.i.) was 17%.

In the case of “phosphorous acid and its salts [(15.62)]”, the “Efficacy in % found” value with Phytophthora infestans (test 6, 500 ppm a.i.) is reported as 54%.

As for propineb [(5.23)], the “Efficacy in % found” value in the assay with Phytophthora infestans (test 6, 50 ppm a.i.) worked out at 26%.
